From patent publication US8263655B2, “Methods for treatment of renal failure” (Technion Research and Development Foundation Ltd, priority 2005, dated 2012)

How the values were obtained:
[1] = tested on: rats with CHF; experiment: Chronic administration to rats with experimental congestive heart failure (aortocaval fistula), renal excretory parameters; format: in vivo, Sprague Dawley rats; conditions: for diuretic and natriuretic responses in rats with congestive heart failure: summary statement
Procedure: (§1) (ii) Animals. Studies were conducted on Sprague Dawley rats (Harlan Laboratories Ltd., Jerusalem, Israel), weighing 290˜330 g. The animals were kept in a temperature-controlled room, and were fed standard rat chow containing 0.5% NaCl and tap water ad libitum. All experiments were performed according to the guidelines of the Technion Committee for Supervision of Animal Experiments (Haifa, Israel). Rats were subjected to one of the experimental protocols, described in Examples 1 and 2 hereinafter.
(§2) (iii) Chemical analysis. Sodium concentration in plasma and urine was determined by flame photometry (model IL 943, Instrumentation Laboratory). Inulin and creatinine concentrations were determined by the colorimetric anthrone method. Glomerular filtration rate (GFR) was equated with the clearance of inulin or creatinine.
Following surgery, the rats were allowed to recover and housed in individual metabolic cages for measurements of daily urine volume and urinary sodium/potassium excretion.
Rasagiline or S-(−)-N-propargyl-1-aminoindan were dissolved in drinking water and given orally at a dose of 1 or 7.5 mg/kg/day for 5 days to normal rats. Following this period, the animals were subjected either to sham operation (n=6) or to creation of aortocaval fistula (ACF) (n=6) as described above. These experimental groups were treated daily by gavage with 1 or 7.5 mg/kg of rasagiline or S-(−)-N-propargyl-1-aminoindan for additional 14 days, and their daily urine volume, sodium and potassium excretion were measured. Rats treated with vehicle (water) served as controls. After completion of the treatment period, animals from the different experimental groups were killed by decapitation and their blood was collected in pre-cooled tubes. Rats with sham operation or animals with arterio-venous fistula treated with vehicle served as controls.

[2] = tested on: rats with renal ischemia; experiment: Rat renal ischemia-reperfusion injury (IRI) model of acute renal failure, renal clearance study; format: in vivo, Sprague Dawley rats; conditions: for diuretic and natriuretic responses and GFR in the ischemic kidney: summary statement
Procedure: as §1, §2
For this purpose, the effects of either rasagiline or S-(−)-N-propargyl-1-aminoindan on renal clearance parameters, i.e., glomerular filtration rate (GFR), absolute and fractional sodium excretion rates (UNaV and FENa, respectively), and urinary flow (V) were studied in rats that underwent renal ischemia. Rats that underwent the same procedure, but were treated with vehicle, served as controls.
The surgical procedure for the induction of renal ischemia has been previously described (Sela et al., 1992). Briefly, the animals were anesthetized with Inactin (100 mg/kg, i.p.), placed on a thermo-regulated (37° C.) surgical table and prepared for hemodynamic and clearance studies (Brodsky et al., 1998). After tracheotomy, polyethylene tubes (PE50) were inserted into the carotid artery, jugular vein and urinary bladder for blood pressure monitoring, infusion of various solutions and urine collections, respectively. A solution of 2% inulin in 0.9% saline was infused throughout the experiment at a rate of 1.0% of body weight per hour. […] Then, the left kidney was exposed and the renal artery was clamped for forty-five minutes of ischemia, followed by 60 min of reperfusion. The right kidney served as the control, for each animal. Thirty minutes prior to the induction of the renal ischemia, animals were treated with either rasagiline or S-(−)-N-propargyl-1-aminoindan administered as a bolus injection (1.0 mg/kg, I.V.), followed by a sustained infusion of the drugs at a dose of 2 mg/kg/h throughout the whole experiment. Animals treated with saline served as controls. Then, two additional clearance periods were obtained under the influence of the drug. Urine volume was determined gravimetrically. Blood samples were obtained in the midst of every 2nd clearance period.

SMILES	diuretic and natriuretic responses in rats with congestive heart failure [1]	diuretic and natriuretic responses and GFR in the ischemic kidney ([2]; ischemic kidney)	GFR (creatinine clearance test) ([1]; rats with CHF, 1 or 7.5 mg/kg/day by gavage for 2 weeks, FIG. 6)	urinary flow rate (daily urine volume) ([1]; rats with CHF, 1 or 7.5 mg/kg/day orally, 14 days after fistula, FIGS. 3A-3B)	absolute (daily) urinary sodium excretion ([1]; rats with CHF, 1 or 7.5 mg/kg/day orally, 14 days, FIG. 4)	cumulative urinary sodium excretion ([1]; rats with CHF, 1 or 7.5 mg/kg/day orally, 14 days, FIG. 5)	glomerular filtration rate (GFR), function of the ischemic kidney ([2]; ischemic (left) kidney, 1.0 mg/kg I.V. bolus 30 min prior to ischemia, then 2 mg/kg/h infusion, 45 min ischemia, 60 min reperfusion, FIG. 1B)	fractional excretion of Na+ (FENa) by ischemic kidney ([2]; ischemic kidney, 1.0 mg/kg I.V. bolus, then 2 mg/kg/h infusion, FIG. 2B)	fractional excretion of Na+ (FENa) by normal kidney ([2]; normal kidney, 1.0 mg/kg I.V. bolus, then 2 mg/kg/h infusion, FIG. 2A)
C#CCN[C@@H]1CCc2ccccc21 [rasagiline, R(+)-N-propargyl-1-aminoindan, reference compound]	significant diuretic and natriuretic responses	diuretic and natriuretic responses accompanied by improved GFR	–	–	–	–	–	–	–
C#CCN[C@H]1CCc2ccccc21 [S-(−)-N-propargyl-1-aminoindan]	significant diuretic and natriuretic responses	diuretic and natriuretic responses accompanied by improved GFR	enhanced GFR	increased the urinary flow rate	markedly enhanced	markedly enhanced	improved the function of the ischemic kidney	enhanced FENa by ischemic kidney more than rasagiline	increased the fractional excretion of Na^+ (FENa) by normal kidney
